Reference: the supplement of paper PMC10307832

What was measured:
Assay in all cases: relative viability (nuclei count vs DMSO), 5 days (fraction); higher = more cells survive
[1] = compound: Cc1ccc(NC(=O)c2ccc(CN3CCN(C)CC3)cc2)cc1Nc1nccc(-c2cccnc2)n1 [Imatinib] + Nc1ncn([C@H]2C[C@H](O)[C@@H](CO)O2)c(=O)n1 [Decitabine] (partner 2 µM)
In short: (§1)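 Nuclei were stained with Hoechst during a one-step fixation (final 0.05% Triton X-100, 1% formaldehyde, 1 ug/ml Hoechst) carried out 5 days after dosing, then counted on 4× images. The cells, lung cancer lines in 1536-well plates, had been dosed by pin tool the day after seeding with one drug alone or a fixed anchor-drug dose plus five library-drug doses (not always all listed) in √10 steps. Relative viability is the nuclei count in treated wells divided by that in vehicle wells, and each value is the median of duplicate plates.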

[2] = compound: Cc1ccc(NC(=O)c2ccc(CN3CCN(C)CC3)cc2)cc1Nc1nccc(-c2cccnc2)n1 [Imatinib] + CS(=O)(=O)CCNCc1ccc(-c2ccc3ncnc(Nc4ccc(OCc5cccc(F)c5)c(Cl)c4)c3c2)o1 [Lapatinib] (partner 2 µM)
In short: as §1

[3] = compound: Cc1ccc(NC(=O)c2ccc(CN3CCN(C)CC3)cc2)cc1Nc1nccc(-c2cccnc2)n1 [Imatinib] + COc1cccc2cc(-c3nc([C@H]4CC[C@H](C(=O)O)CC4)n4ncnc(N)c34)[nH]c12 [OSI-027] (partner 0.5 µM)
In short: as §1

[4] = compound: Cc1ccc(NC(=O)c2ccc(CN3CCN(C)CC3)cc2)cc1Nc1nccc(-c2cccnc2)n1 [Imatinib] + Cc1nc(Nc2ncc(C(=O)Nc3c(C)cccc3Cl)s2)cc(N2CCN(CCO)CC2)n1 [Dasatinib] (partner 0.075 µM)
In short: as §1

Cell Line | relative viability ([1]; first compound 0.02 µM) | relative viability ([1]; first compound 0.2 µM) | relative viability ([1]; first compound 0.6325 µM) | relative viability ([1]; first compound 2 µM) | relative viability ([2]; first compound 0.02 µM) | relative viability ([2]; first compound 0.06325 µM) | relative viability ([2]; first compound 0.2 µM) | relative viability ([2]; first compound 0.6325 µM) | relative viability ([2]; first compound 2 µM) | relative viability ([3]; first compound 0.02 µM) | relative viability ([3]; first compound 0.06325 µM) | relative viability ([3]; first compound 0.2 µM) | relative viability ([3]; first compound 0.6325 µM) | relative viability ([3]; first compound 2 µM) | relative viability ([4]; first compound 0.02 µM) | relative viability ([4]; first compound 0.06325 µM) | relative viability ([4]; first compound 0.2 µM) | relative viability ([4]; first compound 0.6325 µM) | relative viability ([4]; first compound 2 µM) | relative viability ([1]; first compound 0.06325 µM)
NCI-H2347 | 0.58 | 0.653 | 0.615 | 0.632 | 0.995 | 0.913 | 1.05 | 1.04 | 0.91 | 0.287 | 0.384 | 0.318 | 0.442 | 0.426 | 0.317 | 0.266 | 0.256 | 0.283 | 0.251 | –
NCI-H1437 | 0.587 | 0.597 | 0.629 | 0.578 | 0.916 | 0.841 | 0.925 | 0.706 | 0.823 | 0.998 | 0.945 | – | 0.911 | 0.891 | 0.444 | 0.309 | 0.409 | 0.25 | 0.334 | 0.664
NCI-H1651 | 0.56 | 0.643 | 0.591 | 0.599 | 1.02 | 1.06 | 0.994 | 0.692 | 0.87 | – | 0.848 | 0.727 | 0.739 | 0.665 | 0.333 | 0.355 | 0.427 | 0.378 | 0.414 | 0.297
NCI-H1944 | 0.427 | 0.474 | 0.401 | 0.444 | 0.8 | – | 0.991 | 0.853 | 0.771 | 0.423 | 0.267 | 0.403 | 0.425 | 0.381 | 0.198 | 0.208 | 0.2 | 0.2 | 0.234 | 0.394
COR-L 105 | 0.709 | 0.675 | 0.563 | 0.655 | 0.398 | 0.361 | 0.351 | 0.368 | 0.385 | 0.771 | 0.739 | 0.65 | 0.653 | 0.685 | 0.324 | 0.335 | 0.277 | 0.308 | 0.287 | 0.694
RERF-LC-KJ | 0.755 | 0.655 | – | 0.754 | – | 0.853 | 0.498 | 0.819 | 0.763 | 0.598 | 0.418 | 0.544 | 0.492 | 0.551 | 0.927 | 0.602 | 0.987 | 0.771 | 0.841 | 0.558
NCI-H3122 | 0.44 | 0.441 | 0.439 | 0.375 | 1.03 | 1.04 | – | 1.02 | 0.989 | 1.11 | 0.831 | 1.09 | – | 1.1 | – | 0.518 | 0.921 | 0.894 | 0.808 | 0.467
LU99A | 0.986 | 0.824 | 0.812 | 0.903 | 1.14 | 1.08 | 0.986 | 0.99 | 1.18 | 0.315 | 0.285 | 0.301 | 0.323 | 0.28 | 0.761 | 0.637 | 0.555 | 0.736 | 0.372 | 0.827
HOP-62 | 0.199 | 0.25 | 0.232 | 0.211 | 1.03 | – | 0.999 | 0.935 | 0.991 | 0.999 | – | 0.993 | 0.724 | 0.781 | 0.726 | – | 0.642 | 0.576 | 0.54 | –
COR-L23 | 0.382 | 0.474 | 0.409 | 0.455 | 1.13 | 0.791 | 1.41 | 0.922 | 0.829 | 0.869 | 0.831 | 0.853 | 0.824 | 0.64 | 0.555 | 0.451 | 0.43 | 0.591 | 0.539 | 0.507
SK-MES-1 | 0.379 | 0.413 | 0.417 | 0.334 | 0.496 | 0.512 | 0.505 | 0.471 | 0.494 | 0.717 | 0.407 | 0.642 | 0.521 | 0.597 | 0.372 | 0.309 | 0.372 | 0.318 | 0.337 | 0.412
NCI-H2170 | 0.463 | 0.486 | 0.454 | 0.458 | 0.266 | 0.28 | 0.282 | 0.263 | 0.245 | 0.67 | 0.602 | 0.769 | 0.584 | 0.625 | 0.636 | 0.582 | 0.477 | 0.48 | 0.411 | 0.492
NCI-H1793 | 0.477 | 0.522 | 0.447 | 0.445 | 0.841 | – | 0.536 | 0.647 | 0.831 | 0.298 | – | 0.263 | 0.249 | 0.204 | 0.421 | – | 0.388 | 0.368 | 0.388 | –
NCI-H1975 | 0.365 | 0.369 | 0.38 | 0.365 | 1.01 | 1.04 | 1.03 | 1.03 | – | 0.843 | 0.772 | 0.827 | 0.579 | 0.549 | 0.426 | 0.262 | 0.38 | 0.371 | 0.259 | 0.373
NCI-H520 | 0.531 | 0.532 | 0.508 | 0.487 | 1.06 | – | 1.01 | 0.82 | 0.86 | 0.214 | 0.255 | 0.242 | 0.224 | 0.273 | 0.158 | 0.213 | 0.206 | 0.186 | 0.169 | 0.514
NCI-H1915 | 0.257 | 0.281 | 0.276 | 0.243 | 0.974 | – | 1.04 | 0.952 | – | 0.61 | – | 0.67 | 0.6 | 0.599 | 0.298 | – | 0.368 | 0.312 | 0.305 | –
